Results published in patent US10059694B2, “2-aminopyrimidine compound and pharmaceutical composition and use thereof” (Shanghai Institute of Materia Medica, Chinese Academy of …, priority 2014, dated 2018).

Experiments:
EGFR^T790M/L858R = target: T1, EGFR^T790M/L858R (Homo sapiens, UniProt P00533, L858R/T790M); assay: kinase inhibitory activity test (ELISA), EGFR^T790M/L858R; assay type: biochemical
T1 construct: purchased Millipore
How it was run: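 ELISA on poly(Glu,Tyr)4:1-coated plates; kinase reaction with 5 μM ATP (final) in 50 mM HEPES pH 7.4, 50 mM MgCl2, 5 mM MnCl2, 0.2 mM Na3VO4, 1 mM DTT, 1 h at 37° C. Phosphotyrosine detected via PY99/HRP and OPD at 490 nm; IC50 by four-parameter fit.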

IGF-1R = target: T2, IGF-1R (Homo sapiens, UniProt P08069); assay: kinase inhibitory activity test (ELISA), IGF-1R; assay type: biochemical; settings: ATP 5 μM, 1 hour at 37° C.
T2 construct: purchased Millipore
T2 sequence (P08069 31-1367): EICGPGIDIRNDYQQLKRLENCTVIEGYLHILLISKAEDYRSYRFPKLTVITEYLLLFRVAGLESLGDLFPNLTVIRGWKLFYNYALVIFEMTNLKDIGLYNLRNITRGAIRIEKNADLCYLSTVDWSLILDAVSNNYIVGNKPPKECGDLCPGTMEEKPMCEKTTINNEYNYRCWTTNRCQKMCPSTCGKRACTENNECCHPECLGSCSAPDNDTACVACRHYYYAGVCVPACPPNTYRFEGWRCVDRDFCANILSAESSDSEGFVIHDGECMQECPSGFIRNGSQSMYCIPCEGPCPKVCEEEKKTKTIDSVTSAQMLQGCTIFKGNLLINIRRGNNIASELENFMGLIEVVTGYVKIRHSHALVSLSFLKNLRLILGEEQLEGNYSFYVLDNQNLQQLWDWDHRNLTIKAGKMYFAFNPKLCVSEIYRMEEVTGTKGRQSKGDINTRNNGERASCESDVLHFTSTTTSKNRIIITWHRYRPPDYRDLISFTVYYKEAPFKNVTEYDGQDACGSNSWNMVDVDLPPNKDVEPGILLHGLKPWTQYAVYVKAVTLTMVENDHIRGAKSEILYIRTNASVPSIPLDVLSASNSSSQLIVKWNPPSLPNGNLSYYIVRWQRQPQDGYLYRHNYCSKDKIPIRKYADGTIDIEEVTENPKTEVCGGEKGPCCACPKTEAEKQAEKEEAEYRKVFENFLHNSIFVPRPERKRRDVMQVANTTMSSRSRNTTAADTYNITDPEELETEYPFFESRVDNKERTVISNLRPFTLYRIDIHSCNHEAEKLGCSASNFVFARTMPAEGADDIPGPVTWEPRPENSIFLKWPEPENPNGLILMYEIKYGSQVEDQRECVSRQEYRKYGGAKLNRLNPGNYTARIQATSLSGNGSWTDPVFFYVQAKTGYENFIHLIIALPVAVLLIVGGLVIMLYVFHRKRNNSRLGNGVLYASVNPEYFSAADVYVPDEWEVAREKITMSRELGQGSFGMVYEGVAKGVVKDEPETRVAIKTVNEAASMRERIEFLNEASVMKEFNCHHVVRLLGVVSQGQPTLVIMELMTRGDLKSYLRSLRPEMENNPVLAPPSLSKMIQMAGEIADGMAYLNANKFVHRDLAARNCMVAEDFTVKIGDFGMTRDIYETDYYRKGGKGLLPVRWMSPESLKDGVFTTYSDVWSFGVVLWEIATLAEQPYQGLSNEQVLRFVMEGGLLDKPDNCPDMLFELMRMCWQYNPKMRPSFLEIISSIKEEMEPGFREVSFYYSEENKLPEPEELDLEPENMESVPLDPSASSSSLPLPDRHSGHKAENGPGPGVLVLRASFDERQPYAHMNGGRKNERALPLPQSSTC
How it was run: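 Poly(Glu,Tyr)4:1-coated plates; kinase reacted 1 h at 37 °C with 5 μM ATP (final) in HEPES pH 7.4 buffer with Mg2+/Mn2+. Phosphotyrosine detected by PY99 and HRP anti-mouse IgG with OPD at 490 nm; IC50 from four-parameter fit.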

[1] = system: human non-small cell lung cancer NCI-H1975 cell line; assay: SRB proliferation assay, NCI-H1975 cells; assay type: cell-based; settings: NCI-H1975, SRB, 72 h, read-out: IC50 NCI-H1975
How it was run: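 NCI-H1975 cells in log phase were allowed to adhere for 24 h, then treated with compound in triplicate for 72 h. Cells were TCA-fixed and SRB-stained, with OD read at 515 nm; IC50 derived from growth inhibition versus DMSO control.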

T1 sequence (P00533 25-1210 T790M/L858R): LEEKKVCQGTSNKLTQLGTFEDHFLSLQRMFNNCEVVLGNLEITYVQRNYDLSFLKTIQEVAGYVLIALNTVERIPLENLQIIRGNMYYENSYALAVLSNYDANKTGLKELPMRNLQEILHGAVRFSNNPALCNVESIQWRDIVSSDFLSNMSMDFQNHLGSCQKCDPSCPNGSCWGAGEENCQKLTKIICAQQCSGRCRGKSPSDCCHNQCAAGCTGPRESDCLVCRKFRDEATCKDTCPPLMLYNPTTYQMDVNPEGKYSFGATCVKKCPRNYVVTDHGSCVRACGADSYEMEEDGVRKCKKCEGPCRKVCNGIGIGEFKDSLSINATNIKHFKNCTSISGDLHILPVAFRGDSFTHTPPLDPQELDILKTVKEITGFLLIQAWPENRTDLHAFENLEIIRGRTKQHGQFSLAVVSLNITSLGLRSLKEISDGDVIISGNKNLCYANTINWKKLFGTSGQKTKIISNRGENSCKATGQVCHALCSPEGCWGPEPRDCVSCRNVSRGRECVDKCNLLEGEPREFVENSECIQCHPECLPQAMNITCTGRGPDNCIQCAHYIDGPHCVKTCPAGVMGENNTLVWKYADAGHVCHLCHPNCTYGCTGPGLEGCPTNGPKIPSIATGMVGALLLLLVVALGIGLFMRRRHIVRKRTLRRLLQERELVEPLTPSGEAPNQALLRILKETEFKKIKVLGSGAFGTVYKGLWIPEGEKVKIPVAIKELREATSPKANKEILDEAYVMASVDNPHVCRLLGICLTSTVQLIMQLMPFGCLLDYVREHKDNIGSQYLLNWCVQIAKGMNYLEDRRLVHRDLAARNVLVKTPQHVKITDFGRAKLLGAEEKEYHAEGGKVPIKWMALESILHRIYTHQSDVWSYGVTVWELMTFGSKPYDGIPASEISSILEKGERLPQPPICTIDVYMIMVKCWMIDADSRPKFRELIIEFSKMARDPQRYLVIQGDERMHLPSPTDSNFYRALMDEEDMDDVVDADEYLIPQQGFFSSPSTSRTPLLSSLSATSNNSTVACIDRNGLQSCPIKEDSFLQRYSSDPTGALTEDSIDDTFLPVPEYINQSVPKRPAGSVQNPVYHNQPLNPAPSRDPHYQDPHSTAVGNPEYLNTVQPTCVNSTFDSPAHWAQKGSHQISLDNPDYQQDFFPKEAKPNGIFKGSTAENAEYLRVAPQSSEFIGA

IC50 (EGFR^T790M/L858R; ELISA, ATP 5 μM, 1 hour at 37° C.): 0.4 nM
kinase inhibitory activity (in words) (EGFR^T790M/L858R; summary of Table 1): potent
IC50 (IGF-1R): 31.9 nM
IC50 [1]: 1 to 56 nM
Compound: C=CC(=O)Nc1cc(Nc2ncc(Cl)c(Nc3ccc4ccccc4c3)n2)c(OC)cc1N(C)CCN(C)C [CCB120067, N-((5-((5-chloro-4-((naphthalen-2-yl)amino))pyrimidin-2-yl)amino)-2-((N-methyl-N-dimethylaminoethyl)amino)-4-methoxyphenyl)acrylamide]
